# Laboratory results taken from patent EP2366394A1, “Characterization and validation of inhibitors and ligands of dipeptidyl aminopeptidase IV (DP IV)” (IMTM GmbH, priority 2010, dated 2011).
# Like-named read-outs stand apart in the source and are kept apart here.
# Legend:
# T lymphocytes = experiment: Inhibition of proliferation (DNA synthesis, tritium thymidine incorporation) of PHA-stimulated T lymphocytes; assay type: cell-based; settings: Homo sapiens, T-lymphocyte, read-out: IC50(Tc) Measured DNA-Supp.
# Description: Peripheral blood mononuclear cells (PBMC) from healthy human volunteers were freshly isolated by density gradient centrifugation. T lymphocytes (T cells, Tc) were isolated from PBMC fractions via nylon wool adherence. Cells were cultured in standard cell culture media and stimulated by addition of 1 µg/ml Phytohemagglutinine for 48 hours in 96 well flat-bottom microtitre plates. […] DNA synthesis of proliferating T cells was determined by incorporation of radio labelled tritium thymidine and subsequent radio detection. […] The IC50 value of proliferation suppression was assessed by graphical evaluation.
# DP8/9 = experiment: Inhibition of the enzymatic activity of DPIV related enzymes DP8/9; assay type: biochemical; settings: > 25: No inhibition
# Text: Measurement of the enzymatic activity of DPIV and related enzymes
# [1] = biological target: purified, recombinant human DPIV (Homo sapiens, UniProt P27487); experiment: Inhibition of the enzymatic activity of DPIV, fluorogenic substrate (Ala-Pro)2-R110; assay type: biochemical; settings: substrate 0.5 µM, pH 7.5; highest test concentration 25 µM; > 25: No inhibition
# purified, recombinant human DPIV, sequence (P27487 whole entry): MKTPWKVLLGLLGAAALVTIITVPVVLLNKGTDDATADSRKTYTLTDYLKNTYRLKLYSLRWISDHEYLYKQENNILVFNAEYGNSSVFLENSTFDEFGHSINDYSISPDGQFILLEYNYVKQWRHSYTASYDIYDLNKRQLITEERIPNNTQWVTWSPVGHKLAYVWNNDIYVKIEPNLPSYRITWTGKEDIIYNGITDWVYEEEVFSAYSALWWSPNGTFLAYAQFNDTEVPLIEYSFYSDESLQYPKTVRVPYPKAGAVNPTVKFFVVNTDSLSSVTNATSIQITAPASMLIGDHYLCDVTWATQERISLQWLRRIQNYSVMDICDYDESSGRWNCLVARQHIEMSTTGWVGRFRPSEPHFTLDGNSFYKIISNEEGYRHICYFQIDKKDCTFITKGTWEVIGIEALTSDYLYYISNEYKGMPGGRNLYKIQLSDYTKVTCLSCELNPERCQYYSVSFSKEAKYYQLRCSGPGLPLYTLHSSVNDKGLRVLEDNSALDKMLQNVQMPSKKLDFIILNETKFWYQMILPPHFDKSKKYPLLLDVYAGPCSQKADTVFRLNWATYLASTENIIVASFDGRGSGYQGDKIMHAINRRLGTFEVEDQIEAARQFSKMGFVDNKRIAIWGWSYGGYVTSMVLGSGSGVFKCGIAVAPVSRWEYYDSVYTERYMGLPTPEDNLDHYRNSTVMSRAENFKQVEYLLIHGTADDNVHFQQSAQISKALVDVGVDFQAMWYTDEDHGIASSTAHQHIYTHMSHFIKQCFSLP
# Description: The assay was performed in 0.05 M TRIS/HCl buffer, pH 7.5, supplemented with 0.05 % Triton® (v/v), 0.05 % BSA (w/v), 2 mM MgCl2.
# The enzymatic activity of DPIV was assessed by the hydrolysis of the fluorogenic substrate Bis-(L-Alanyl-Prolyl)-Rhodamin-110 (Bis-Trifluoroacetate; abbreviation: (Ala-Pro)2-R110). The final substrate concentration was 0.5 µM.
# The assay was performed in white microtitre plates for fluorescence measurements. The test items, substrate and enzyme, were diluted in assay buffer. […] For the calculation of IC50 values, at least 16 log2 dilutions of each test item were analyzed. As controls, the DPIV activity in the absence of test items as well as the spontaneous hydrolysis of the substrate was determined.
# [2] = suppression of DNA synthesis of T cells, 1 µg/ml Phytohemagglutinine, 48 hours, graphical evaluation
SMILES,IC50 (T lymphocytes; 48 h),IC50 (DP8/9),IC50 (T lymphocytes; [2]),IC50 [1]
"CC[C@H](C)[C@H](N)C(=O)N1CCSC1 [No. 4, (1S,2S)-2-Methyl-1-(1,3-thiazolidine-3-ylcarbonyl) butyl amine]",113 µM,1.73 µM,–,–
"Cc1[nH]c2ccccc2c1C(c1cc(Cl)ccc1O)N1CCOCC1 (stereo not shown) [No. 16, 4-Chloro-2-[(2-methyl-1H-indol-3-yl)(morpholin-4-yl)methyl]-benzenolate]",–,–,3 µM,> 25 µM
"NC(CC(=O)N1CCN(C(c2ccc(F)cc2)c2ccc(F)cc2)CC1)C(=O)N1Cc2ccccc2C1 (stereo not shown) [No. 13, 2-Amino-1-(1,3-dihydro-2H-isoindol-2-yl)-4-(4-bis(4-fluorophenyl)-methylpiperazine-1-yl) butane-1,4-dione]",6 µM,–,–,–
"NC(CCCCNC(=O)c1ccc(S)nc1)C(=O)N1CCSC1 (stereo not shown) [No. 8, N-[5-Amino-6-oxo-6-(1,3-thiazolidine-3-yl)hexyl]-6-mercapto nicotinamide]",90 µM,0.001 µM,–,0.09 µM
"CCCCCC(=O)NC(CC(=O)NCC(C)(C)CNC(=O)C(O)C(Cc1ccccc1)NC(=O)CCCCC)Cc1cc(F)ccc1F (stereo not shown) [No. 7, 3-Amino-5-phenyl-N-{3-[(3-amino-1-oxohexyl-2-hydroxypropanoyl)amino-1-oxohexyl]-2,2-dimethylpropyl}-5-(2,5-difluorophenyl)pentane 3-N-tert.butyl carbamate]",10 µM,> 25 µM,–,> 25 µM
"N[C@@H](CC(=O)N1CCn2c(nnc2C(F)(F)F)C1)Cc1cc(F)ccc1F [No. 1, (1R)-1-(2,5-Difluorobenzyl)-3-oxo-3-[3-(trifluoromethyl)-5,6-dihydro[1,2,4]triazolo[4,3-a]pyrazine-7(8H)-yl]propylamine]",200 µM,–,–,–
"CC(C)C(Oc1ccc(CNC(=O)C2CCCN2C(=O)CC(N)Cc2cc(F)ccc2F)cc1)C(=O)O (stereo not shown) [No. 2, 2-[({[1-(3-Amino, 2-(2, 5)-difluorophenylbutanoyl)pyrrolidin-2-yl]carbonyl}amino)-p-phenoxy]-3-methyl butanoic acid]",–,> 25 µM,81 µM,0.48 µM
"CC(C)(CNC(=O)CC(Cc1cc(F)ccc1F)NC(=O)OC(C)(C)C)CNC(=O)C(O)C(Cc1ccccc1)NC(=O)OC(C)(C)C (stereo not shown) [No. 6, 3-N-tert.-Butylcarbamato-5-phenyl-N-{3-[(3-amino-2-hydroxypropanoyl)-amino]-2,2-dimethylpropyl}-5-(2,5-difluorophenyl) pentane 3-amine]",8 µM,> 25 µM,–,> 25 µM
"NC(CNC(=O)c1cccc(NC(=O)C(O)C(N)Cc2ccc(-c3cccnc3)cc2)c1)Cc1cc(F)ccc1F (stereo not shown) [No. 15, 3-[(3-Amino-2-4-(4-(3-pyridinyl)-phenyl) hydroxybu-tanoyl)-amino]-N-(2-amino-5-(2,4-difluorophenyl)pentyl) ben-zamide]",–,8.5 µM,24 µM,–
"NC(CC(=O)N1CCn2c(nnc2C(F)(F)F)C1)Cc1cc(F)c(F)cc1F (stereo not shown) [No. 10, 3-Oxo-1-(2,4,5-trifluorobenzyl)-3-[3-(trifluoromethyl)-5,6-dihydro-[1,2,4]triazolo[4,3-a]pyrazine-7(8H)-yl]propyl amine]",–,15.3 µM,148 µM,–
